# Results from patent publication US20220315621A1, “COMPOSITIONS AND METHODS FOR TREATING CNS DISORDERS” (priority 2017, published 2022).
# Like-named read-outs stand apart in the source and are kept apart here.
# Molecular target: GABAA receptor (rat brain cortical membranes, [35S]-TBPS binding)
# Conditions: rat brain cortical membranes, 3 nM [35S]-TBPS, in the presence of 5 mM GABA
SMILES,IC50 (Table I-6),IC50 (Table I-4),other results
"C[C@@]1(O)CC[C@H]2[C@H](CC[C@@H]3[C@@H]2CC[C@]2(C)[C@@H](C(=O)Cn4nccn4)C[C@@H]32)C1 [I-AA11, 1-((1S,2aS,2bR,4aR,6R,8aS,8bR,10aS)-6-hydroxy-6,10a-dimethylhexadecahydrocyclobuta[a]phenanthren-1-yl)-2-(2H-1,2,3-triazol-2-yl)ethan-1-one]",,,IC50 (Table I-5): 1000 to 10000 nM
"C[C@@]1(O)CC[C@H]2[C@H](CC[C@@H]3[C@@H]2CC[C@]2(C)[C@H](CO)CCCC[C@@H]32)C1 [I-BA5a, (2R,4aS,4bR,6aS,7R,11aS,11bR,13aR)-7-(hydroxymethyl)-2,6a-dimethyloctadecahydro-1H-cyclohepta[a]phenanthren-2-ol]",1000 to 10000 nM,,
"CC(=O)[C@H]1CCCC[C@H]2[C@@H]3CC[C@@H]4C[C@](C)(O)CC[C@@H]4[C@H]3CC[C@]12C [I-BA9a, 1-((2R,4aS,4bR,6aS,7S,11aS,11bR,13aR)-2-hydroxy-2,6a-dimethyloctadecahydro-1H-cyclohepta[a]phenanthren-7-yl)ethan-1-one]",10 to 100 nM,,
"CCOC[C@@]1(O)CC[C@H]2[C@@H](CC[C@@H]3[C@@H]2CC[C@]2(C)[C@@H](C(C)=O)CCC[C@@H]32)C1 [I-S3, 1-((1S,4aS,4bR,6aS,8R,10aS,10bR,12aS)-8-(ethoxymethyl)-8-hydroxy-12a-methyloctadecahydrochrysen-1-yl)ethan-1-one]",,100 to 1000 nM,
"C[C@@]1(O)CC[C@H]2[C@H](CC[C@@H]3[C@@H]2CC[C@]2(C)C[C@H](C(=O)Cn4cc(C#N)cn4)CCC[C@@H]32)C1 [I-BC16a, 1-(2-((2R,4aS,4bR,6aR,8R,11aS,11bR,13aR)-2-hydroxy-2,6a-dimethyloctadecahydro-1H-cyclohepta[a]phenanthren-8-yl)-2-oxoethyl)-1H-pyrazole-4-carbonitrile]",100 to 1000 nM,,
"C[C@@]1(O)CC[C@H]2[C@H](CC[C@@H]3[C@@H]2CC[C@]2(C)C[C@@H](C(=O)Cn4cc(C#N)cn4)CC[C@@H]32)C1 [I-R17, 1-(2-((2S,4aS,4bR,6aR,8R,10aS,10bR,12aR)-8-hydroxy-8,12a-dimethyloctadecahydrochrysen-2-yl)-2-oxoethyl)-1H-pyrazole-4-carbonitrile]",,1000 to 10000 nM,
"C[C@@]1(O)CC[C@H]2[C@H](CC[C@@H]3[C@@H]2CC[C@]2(C)C[C@H](C(=O)Cn4cc(C#N)cn4)CC[C@@H]32)C1 [I-R17a, 1-(2-((2R,4aS,4bR,6aR,8R,10aS,10bR,12aR)-8-hydroxy-8,12a-dimethyloctadecahydrochrysen-2-yl)-2-oxoethyl)-1H-pyrazole-4-carbonitrile]",,1000 to 10000 nM,
"CCN(CC)C(=O)[C@H]1CCC[C@H]2[C@@H]3CC[C@H]4C[C@@](O)(COC)CC[C@@H]4[C@H]3CC[C@]12C [I-M3, (1S,4aS,4bR,6aS,8R,10aS,10bR,12aS)—N,N-diethyl-8-hydroxy-8-(methoxymethyl)-12a-methyloctadecahydrochrysene-1-carboxamide]",,100 to 1000 nM,
"C[C@@]1(O)CC[C@H]2[C@H](CC[C@@H]3[C@@H]2CC[C@]2(C)[C@H](C#N)CCCC[C@@H]32)C1 [I-BA16a, (2R,4aS,4bR,6aS,7R,11aS,11bR,13aR)-2-hydroxy-2,6a-dimethyloctadecahydro-1H-cyclohepta[a]phenanthrene-7-carbonitrile]",1000 to 10000 nM,,
"C[C@@]1(O)CC[C@H]2[C@H](CC[C@@H]3[C@@H]2CC[C@]2(C)[C@@H](C(=O)NCc4ccccc4)CCC[C@@H]32)C1 [Compound I-14, (1S,4aS,4bR,6aR,8R,10aS,10bR,12aS)-N-benzyl-8-hydroxy-8,12a-dimethyloctadecahydrochrysene-1-carboxamide]",,10 to 100 nM,
"C[C@]12CC[C@H]3[C@@H](CC[C@@H]4C[C@H](O)CC[C@@H]43)[C@@H]1CC[C@H](C(=O)Nc1ccccc1)C2 (single isomer, unassigned) [I-R24]",,1000 to 10000 nM,
